pIC50: −log10 of the molar value.
What follows are compounds tested on phospho-ERK formation (Raf kinase activity) in A375 cells (assay: Phospho-ERK ELISA assay). Conditions: Homo sapiens, A-375, 3 h, 3 hours with inhibitor, read-out: IC50, inhibition of the formation of phospho-ERK.
Type: cell-based
Procedure: Inhibition of Raf kinase activity in whole cell systems can be assessed by determining the decrease in phosphorylation of Raf kinase substrates. Any known Raf kinase substrate can be used to measure inhibition of Raf kinase activity in a whole cell system.
Medium was removed, and cells were incubated with Raf kinase inhibitors for 3 hours at 37° C. Medium was removed, and cells were fixed with 4% paraformaldehyde for 15 minutes at room temperature.
Methanol was added for 15 min. Cells were removed and blocked with 10% sheep serum and 1% BSA in PBS overnight at 4° C. Cells were incubated with anti-p44/42MAPK antibody (1:100, Cell Signaling Technologies, #9101L) (20 μL/well) for one hour at room temperature. After washing with PBS three times, cells were stained with anti-rabbit horseradish peroxidase-linked antibody from donkey (1:100, Amersham Bioscience #NA934V) for 1 hour at room temperature. Cells were washed three times with 0.5% Tween-20 in PBS and twice with PBS. 3,3′, 5,5′-Tetramethylbenzidine (TMB) liquid substrate system (Sigma, #T8665) (50 μL/well) was added, and cells were incubated for 30-45 minutes at room temperature. Optical density was read at 650 nm. Cells were then washed 3-5 times with PBS to remove color solution. Results were normalized for the protein content in each well using a BCA protein assay kit (Pierce).

pIC50, ≥ 4.60:
CNC(=O)c1cc(Oc2ccc3c(c2)C[C@H](C(=O)Nc2cc(CN)cc(C(F)(F)F)c2)CC3)ccn1 [Compound I-244, 4-{[(7R)-7-({[3-(aminomethyl)-5-(trifluoromethyl)phenyl]amino}carbonyl)-5,6,7,8-tetrahydronaphthalen-2-yl]oxy}-N-methylpyridine-2-carboxamide]
CC(=O)NCc1cc(Oc2ccc3c(c2)CC(C(=O)Nc2cccc(C(C)(C)C)c2)CC3)ccn1 (centres unmarked) [Compound I-246, 7-({2-[(acetylamino)methyl]pyridin-4-yl}oxy)-N-(3-tert-butylphenyl)-1,2,3,4-tetrahydronaphthalene-2-carboxamide]
CC(C)(C)c1cccc(NC(=O)C2CCc3ccc(Oc4ccnc(NS(C)(=O)=O)c4)cc3C2)c1 (centres unmarked) [Compound I-254, N-(3-tert-butylphenyl)-7-({2-[(methylsulfonyl)amino]pyridin-4-yl}-oxy)-1,2,3,4-tetrahydronaphthalene-2-carboxamide]
O=C(Nc1cc(C(F)(F)F)ccc1OCCN1CCNCC1)C1CCc2ccc(Oc3ccnc(C4=NCCN4)c3)cc2C1 (centres unmarked) [Compound I-261, 7-{[2-(4,5-dihydro-1H-imidazol-2-yl)pyridin-4-yl]oxy}-N-[2-(2-piperazin-1-ylethoxy)-5-(trifluoromethyl)phenyl]-1,2,3,4-tetrahydronaphthalene-2-carboxamide]
NCc1cc(NC(=O)C2CCc3ccc(Oc4ccnc(N)c4)cc3C2)cc(C(F)(F)F)c1 (centres unmarked) [Compound I-271, N-[3-(aminomethyl)-5-(trifluoromethyl)phenyl]-7-[(2-aminopyridin-4-yl)oxy]-1,2,3,4-tetrahydronaphthalene-2-carboxamide]
CC(=O)Nc1cc(Oc2ccc3c(c2)CC(C(=O)Nc2ccc(C(F)(F)F)cc2)CC3)ccn1 (centres unmarked) [Compound I-281, 7-{[2-(acetylamino)pyridin-4-yl]oxy}-N-[4-(trifluoromethyl)phenyl]-1,2,3,4-tetrahydronaphthalene-2-carboxamide]
CC(C)(C)c1cccc(NC(=O)c2cnc3ccc(Oc4ccncc4)cc3c2)c1 [Compound I-299, N-(3-tert-butylphenyl)-6-(pyridin-4-yloxy)quinoline-3-carboxamide]
CC(=O)Nc1cc(Oc2ccc3c(c2)CC(C(=O)Nc2ccc(Cl)cc2)CC3)ccn1 (centres unmarked) [Compound I-303, 7-{[2-(acetylamino)pyridin-4-yl]oxy}-N-(4-chlorophenyl)-1,2,3,4-tetrahydronaphthalene-2-carboxamide]
CC(C)(C)c1cccc(NC(=O)C2CCc3ccc(Oc4ccnc(CN)c4)cc3C2)c1 (centres unmarked) [Compound I-331, 7-{[2-(aminomethyl)pyridin-4-yl]oxy}-N-(3-tert-butylphenyl)-1,2,3,4-tetrahydronaphthalene-2-carboxamide]
CC(C)(C)c1cccc(NC(=O)c2ccc3ccc(Oc4ccnc(C#N)c4)cc3c2)c1 [Compound I-340, N-(3-tert-butylphenyl)-7-[(2-cyanopyridin-4-yl)oxy]-2-naphthamide]
Cn1cc(-c2cc(Oc3ccc4c(c3)CC(C(=O)Nc3cc(CN5CCCC5)cc(C(F)(F)F)c3)CC4)ccn2)cn1 (centres unmarked) [Compound I-344, 7-{[2-(1-methyl-1H-pyrazol-4-yl)pyridin-4-yl]oxy}-N-[3-(pyrrolidin-1-ylmethyl)-5-(trifluoromethyl)phenyl]-1,2,3,4-tetrahydronaphthalene-2-carboxamide]
CC(C)(C)c1cccc(NC(=O)C2COc3ccc(Oc4ccnc(C5=NCCN5)c4)cc3C2)c1 (centres unmarked) [Compound I-349, N-(3-tert-butylphenyl)-6-{[2-(4,5-dihydro-1H-imidazol-2-yl)pyridin-4-yl]oxy}chromane-3-carboxamide]
O=C(Nc1cc(OCCN2CCCC2)cc(C(F)(F)F)c1)c1cnc2ccc(Oc3ccncc3)cc2c1 [Compound I-351, 6-(pyridin-4-yloxy)-N-[3-(2-pyrrolidin-1-ylethoxy)-5-(trifluoromethyl)phenyl]quinoline-3-carboxamide]
NCc1cc(NC(=O)C2CCc3ccc(Oc4ccnc(C(=O)N5CCCC5)c4)cc3C2)cc(C(F)(F)F)c1 (centres unmarked) [Compound I-362, N-[3-(aminomethyl)-5-(trifluoromethyl)phenyl]-7-{[2-(pyrrolidin-1-ylcarbonyl)pyridin-4-yl]oxy}-1,2,3,4-tetrahydronaphthalene-2-carboxamide]
N=C(N)c1cc(Oc2ccc3ccc(C(=O)Nc4ccc(CN)c(C(F)(F)F)c4)cc3c2)ccn1 [Compound I-381, 7-({2-[amino(imino)methyl]pyridin-4-yl}oxy)-N-[4-(aminomethyl)-3-(trifluoromethyl)phenyl]-2-naphthamide]
CN1CCN(c2cc(Oc3ccc4c(c3)CC(C(=O)Nc3cccc(C(C)(C)C)c3)CC4)ccn2)CC1 (centres unmarked) [Compound I-415, N-(3-tert-butylphenyl)-7-{[2-(4-methylpiperazin-1-yl)pyridin-4-yl]oxy}-1,2,3,4-tetrahydronaphthalene-2-carboxamide]
CCNC(=O)NCc1cc(NC(=O)C2CCc3ccc(Oc4ccnc(C(=O)NC)c4)cc3C2)cc(C(F)(F)F)c1 (centres unmarked) [Compound I-420, 4-{[7-({[3-({[(ethylamino)carbonyl]amino}methyl)-5-(trifluoromethyl)phenyl]amino}carbonyl)-5,6,7,8-tetrahydronaphthalen-2-yl]-oxy}-N-methylpyridine-2-carboxamide]
CNC(=O)c1cc(Oc2ccc3c(c2)CC(NC(=O)c2ccc(Cl)c(C(F)(F)F)c2)CC3)ccn1 (centres unmarked) [Compound I-444, 4-[(7-{[4-chloro-3-(trifluoromethyl)benzoyl]amino}-5,6,7,8-tetrahydronaphthalen-2-yl)oxy]-N-methylpyridine-2-carboxamide]
CC(C)(C)c1cccc(NC(=O)c2cnc3ccc(Oc4ccnc(C#N)c4)cc3c2)c1 [Compound I-448, N-(3-tert-butylphenyl)-6-[(2-cyanopyridin-4-yl)oxy]quinoline-3-carboxamide]
CNC(=O)c1cc(Oc2ccc3c(c2)CC(NC(=O)c2cccc(C(C)(C)C)c2)CC3)ccn1 (centres unmarked) [Compound I-460, 4-({7-[(3-tert-butylbenzoyl)amino]-5,6,7,8-tetrahydronaphthalen-2-yl}oxy)-N-methylpyridine-2-carboxamide]
